Measured values taken from EP2522329A1, “Use of resveratrol and arbutin” (DSM IP Assets B.V., priority 2011, dated 2012).
Read-outs that look alike come from different tables or passages of the source.

Test system: POMC
Assay: Gene modulation in normal human epidermal melanocytes (NHEM), RT-qPCR PCR array of mRNA expression
Type: cell-based
Conditions: Melanocyte, 72 h
Protocol: Normal human epidermal melanocytes were cultivated for 24 hours. […] Cells were cultivated for additional 72 hours. All experimental conditions were performed in triplicate.
At the end of the cultivation, the cells were harvested and washed with phosphate buffered saline (PBS) solution and immediately frozen at -80 °C. The expression of selected markers was analyzed using RT-qPCR method on mRNA extracted from cells layer for each treatment condition. The differential expression analysis was performed by PCR arrays of the screening format "mQPA H-Melanocyte-64", which focuses on 64 genes selected for their importance in pigmentation and melanocyte biology.
Total RNA was extracted from each sample using TRI-Reagent®. The amount and quality of the RNA was evaluated using a lab-on-a-chip Bioanalyzer (Agilent technologies). Potential contaminants traces of DNA were removed […] The incorporation of fluorescence in amplified DNA was measured continuously during the PCR cycles. […] The value selected for RE calculations is the "output point" (Ct) of the fluorescence curve. For a given marker, the highest is the cycle number; the lowest, is the mRNA quantity. The RE value is expressed in arbitrary units (AU) according to the equation: (((1)/(2)))^NC x 10^6 Where NC is the number of cycles. [formula]

Molecule Oc1ccc(C=Cc2cc(O)cc(O)c2)cc1 [Resveratrol, 3,4',5 trihydroxystilbene] has an activation at 5 µg/mL (read-out: POMC expression ratio compared to control) of 5% and an activation at 5 µg/mL (read-out: modulation of expression of the gene POMC when compared to untreated cells) of 5%.
